Measurements published in PMC12669040, “Tumour-specific STING agonist synthesis via a two-component prodrug system” (Nature Chemistry, 2025).
Values joined by “and” are separate entries in the source; they are usually repeats but may differ in a detail not shown here. Equal entries are not always repeated. Where two headings read alike, the source gives them in different places.

Assays:
[1] = test system: THP-1 Lucia ISG cells (interferon pathway); assay: Potency test of purified dimers on THP-1 Lucia ISG reporter cells; format: cell-based, human; conditions: for Raw readings: replicates 1-3; for fold induction at 0.000508053 µM / fold induction at 0.00152416 µM / fold induction at 0.00457247 µM / fold induction at 0.0137174 µM / fold induction at 0.0411523 µM / fold induction at 0.123457 µM / fold induction at 0.37037 µM / fold induction at 1.11111 µM / fold induction at 3.33333 µM / fold induction at 10 µM / EC50: Homo sapiens, THP1-Lucia ISG, 24 h; for fold induction at 0.000508053 µM: Concentration 0.508053 nM; for fold induction at 0.000508053 µM / fold induction at 0.00152416 µM / fold induction at 0.00457247 µM / fold induction at 0.0137174 µM / fold induction at 0.0411523 µM / fold induction at 0.123457 µM / fold induction at 0.37037 µM / fold induction at 1.11111 µM / fold induction at 3.33333 µM / fold induction at 10 µM: three replicates, read-out: Processed reporter response per replicate (reading relative to DMSO); for fold induction at 0.00152416 µM: Concentration 1.52416 nM; for fold induction at 0.00457247 µM: Concentration 4.57247 nM; for fold induction at 0.0137174 µM: Concentration 13.7174 nM; for fold induction at 0.0411523 µM: Concentration 41.1523 nM; for fold induction at 0.123457 µM: Concentration 123.457 nM; for fold induction at 0.37037 µM: Concentration 370.37 nM; for fold induction at 1.11111 µM: Concentration 1111.11 nM; for fold induction at 3.33333 µM: Concentration 3333.33 nM; for fold induction at 10 µM: Concentration 10000 nM; for EC50: three biological replicates, mean ± s.d., read-out: EC50 THP-1
Description: Cells were pelleted (150g, 10 min) and resuspended in the growth medium (40% conditioned) at a density of 1 × 10^6 cells ml^−1. The cell suspension was dispensed (50 µl each well) into a lidded white 96-well plate (BrandTech 781665). Test compounds or DMSO control were diluted in the growth medium and sterilized by filtering through 0.22-µm polyethersulfone (PES) membranes (Merck SLGP033RS). […] Upon cooling down to room temperature, 50 µl of reconstituted luciferase substrate (InvivoGen QUANTI-Luc) was added to each well via the injector of the plate reader (Molecular Devices SpectraMax i3x), and the luminescence output was recorded (4 s delay, 0.1 s integration). Raw signals were divided by the averaged signal of the DMSO-treated control wells and reported in relative luminescence unit (RLU). The dose–response curve of each replicate was fitted individually using the standard 4PL model (GraphPad Prism). The EC50 value of each compound was averaged from three independent experiments and reported as mean ± s.e.m.

[2] = target: T1, wild-type human STING LBD (hSTINGwt 138-379) (Homo sapiens, UniProt Q86WV6, H232R); assay: Isothermal titration calorimetry (ITC), reverse titration; format: binding
T1 construct: SUMO (N, cleaved yes); made in house; host or cells: Escherichia coli BL21 (DE3)
Description: Escherichia coli BL21 (DE3) (Thermo Scientific EC0114) was transformed with a pET28a plasmid (Genscript) harbouring the codon-optimized sequence of SUMO-hSTINGwt (aa138-379). Transformed BL21 cells were inoculated into LB medium (50 µg ml^−1 kanamycin) and incubated at 180 rpm, 37 °C overnight. The overnight culture was then diluted (1:100 dilution) in 2× YT medium (50 µg ml^−1 kanamycin) and incubated at 180 rpm, 37 °C until optical density at 600 nm (OD600) reached 0.6 (approximately 3 h). The bacterial culture was then cooled to 16 °C, induced with 0.5 mM isopropyl 1-thio-D-galactopyranoside and incubated overnight at 180 rpm, 16 °C. The bacterial cells were pelleted at 4,000g for 30 min, resuspended in 20 ml of lysis buffer (25 mM HEPES pH 7.5, 150 mM NaCl, 20 mM imidazole and 2 mM TCEP supplied with 2 tablets of cOmplete mini EDTA-free protease inhibitors) and disrupted by sonication on ice. The total lysate was clarified by centrifugation at 22,000g for 30 min. The supernatant was collected and filtered through a 0.45-µm filter (Millipore SLHAR33SS). The clarified lysate was then incubated on a roller with 10 ml bed volume of Ni-NTA resin (Thermo Scientific 88223) at 4 °C for 1 h. The Ni-NTA resin was then packed in a column, flushed with 20 ml of wash buffer (25 mM HEPES pH 7.5, 150 mM NaCl and 20 mM imidazole) and eluted with 40 ml of elution buffer (25 mM HEPES pH 8.0, 150 mM NaCl and 250 mM imidazole). The eluted protein was concentrated to approximately 5 ml (Millipore Amicon 10 kDa molecular weight cut-off (MWCO)) and buffer-exchanged into storage buffer (25 mM HEPES pH 7.5 and 150 mM NaCl). TCEP was then added to a final concentration of 2 mM, and 250 units of SUMO protease (Merck SAE0067) were added. The cleavage reaction mixture was left to stand at 4 °C overnight until LC–MS analysis indicated the completion of the cleavage reaction. The cleavage mixture was incubated with 10 ml bed volume of Ni-NTA resin on a roller at 4 °C for 1 h and packed in a disposable column. The flowthrough was collected, and the resin was further flushed with 20 ml of wash buffer. The eluted fractions were combined, concentrated and further purified by size-exclusion chromatography (Cytiva, Superdex 200 Increase 10/300 GL). The purified protein in storage buffer was concentrated to 330 µM (dimer concentration) as determined by bicinchoninic acid (BCA) assay, aliquoted, flash-frozen in liquid nitrogen and stored at −80 °C for future use.
The binding constants of purified dimers were measured by ITC (Malvern Panalytical AutoITC200) in a reverse-titration format. Stock DMSO solutions of each dimer were dissolved in titration buffer (25 mM HEPES pH 7.5 and 150 mM NaCl) to a final concentration of 25 µM and added to the titration cell. The syringe was filled with 250 µM of purified STING in a matching buffer. Titration was performed at 25 °C with the following parameters: 750 rpm stirring, 0.2 µl initial injection followed by 2-µl injections of the […] every 120 s. Titration of STING protein into blank buffer was separately performed and subtracted from the raw data before the analysis. The background-subtracted titration curves were fitted with the built-in Origin software using the standard one-site model.
Extended Data Fig. 2 Isothermal titration calorimetry (ITC) data for binding constant measurements. Purified hSTINGwt138-379 (250 μM of homodimer) was titrated into each dimer (25 μM) dissolved in a matching buffer (25 mM HEPES pH 7.5, 150 mM NaCl) at 25 °C and 750 rpm stirring. Binding constants were reported as the average from duplicate measurements.

[3] = 25 °C, average of duplicate measurements, read-out: Kd hSTINGwt (binding constant, ITC)

T1 sequence (Q86WV6 138-379 H232R): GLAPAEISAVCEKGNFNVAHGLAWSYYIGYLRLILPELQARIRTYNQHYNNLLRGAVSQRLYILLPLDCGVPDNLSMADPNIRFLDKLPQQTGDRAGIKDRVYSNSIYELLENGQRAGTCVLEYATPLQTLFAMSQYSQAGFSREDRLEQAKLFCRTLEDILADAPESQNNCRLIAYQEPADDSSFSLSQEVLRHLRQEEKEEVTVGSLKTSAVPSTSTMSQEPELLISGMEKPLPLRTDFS

Row | Structure (SMILES) | EC50 [1] [µM] | Raw readings ([1]; Conc 0.508053 nM) | Raw readings ([1]; Conc 1.52416 nM) | Raw readings ([1]; Conc 4.57247 nM) | Raw readings ([1]; Conc 13.7174 nM) | Raw readings ([1]; Conc 41.1523 nM) | Raw readings ([1]; Conc 123.457 nM) | Raw readings ([1]; Conc 370.37 nM) | Raw readings ([1]; Conc 1111.11 nM) | Raw readings ([1]; Conc 3333.33 nM) | Raw readings ([1]; Conc 10000 nM) | fold induction at 0.000508053 µM [1] | fold induction at 0.00152416 µM [1] | fold induction at 0.00457247 µM [1] | fold induction at 0.0137174 µM [1] | fold induction at 0.123457 µM [1] | fold induction at 0.37037 µM [1] | fold induction at 1.11111 µM [1] | fold induction at 3.33333 µM [1] | fold induction at 10 µM [1] | further results
1 | COc1cc2sc(C(=O)CCC(=O)O)cc2cc1Sc1cc2cc(C(=O)CCC(=O)O)sc2cc1OC [Compound D1] | 0.291 ± 0.022 | 1353 RLU and 1053 RLU and 1124 RLU | 759 RLU and 868 RLU and 713 RLU | 1002 RLU and 721 RLU and 729 RLU | 1412 RLU and 851 RLU and 1233 RLU | 3959 RLU and 4405 RLU and 4421 RLU | 44787 RLU and 77696 RLU and 48848 RLU | 107911 RLU and 161465 RLU and 94323 RLU | 125522 RLU and 220455 RLU and 140381 RLU | 142408 RLU and 266422 RLU and 170286 RLU | 176790 RLU and 287573 RLU and 159056 RLU | 1.85 | 1.04 | 1.37 | 1.93 | 61.3 | 148 | 172 | 195 | 242 | fold induction at 0.0411523 µM [1]: 5.41; Kd [2, 3]: 0.065 µM; Kd ([2]; ITC run _01, read-out: Kd): 0.08 µM; Kd ([2]; ITC run _02, read-out: Kd): 0.05 µM
2 | COc1cc2sc(C(=O)CCC(=O)O)cc2cc1CCCSc1cc2cc(C(=O)CCC(=O)O)sc2cc1OC [Compound D4] | > 10 | 972 RLU and 1002 RLU and 881 RLU | 820 RLU and 522 RLU and 439 RLU | 921 RLU and 829 RLU and 583 RLU | 721 RLU and 644 RLU and 533 RLU | 942 RLU and 783 RLU and 992 RLU | 1083 RLU and 911 RLU and 1043 RLU | 775 RLU and 737 RLU and 829 RLU | 962 RLU and 1173 RLU and 1233 RLU | 1143 RLU and 434 RLU and 1233 RLU | 8812 RLU and 7169 RLU and 7929 RLU | 1.37 | 0.714 | 1.13 | 0.881 | 1.25 | 1.01 | 1.6 |  | 9.81 | fold induction at 0.0411523 µM [1]: 1.07
3 | COc1cc2sc(C(=O)CCC(=O)O)cc2cc1SCCCSc1cc2cc(C(=O)CCC(=O)O)sc2cc1OC [Compound D6] | > 10 | 775 RLU and 627 RLU and 744 RLU | 1043 RLU and 675 RLU and 1023 RLU | 1143 RLU and 972 RLU and 595 RLU | 992 RLU and 713 RLU and 1033 RLU | 501 RLU and 595 RLU and 1053 RLU | 890 RLU and 1002 RLU and 706 RLU | 1023 RLU and 470 RLU | 689 RLU and 699 RLU and 1023 RLU | 595 RLU and 992 RLU and 806 RLU | 722 RLU and 829 RLU and 644 RLU | 0.858 | 0.923 | 1.33 | 0.975 | 1.37 |  | 0.956 |  | 1.13 | 

Molecules with a lower EC50 [1], results first:

Row | EC50 [1] [µM] | Structure (SMILES) | Raw readings ([1]; Conc 0.508053 nM) | Raw readings ([1]; Conc 1.52416 nM) | Raw readings ([1]; Conc 4.57247 nM) | Raw readings ([1]; Conc 13.7174 nM) | Raw readings ([1]; Conc 41.1523 nM) | Raw readings ([1]; Conc 123.457 nM) | Raw readings ([1]; Conc 370.37 nM) | Raw readings ([1]; Conc 1111.11 nM) | Raw readings ([1]; Conc 3333.33 nM) | Raw readings ([1]; Conc 10000 nM) | fold induction at 0.000508053 µM [1] | fold induction at 0.00152416 µM [1] | fold induction at 0.00457247 µM [1] | fold induction at 0.0137174 µM [1] | fold induction at 0.123457 µM [1] | fold induction at 0.37037 µM [1] | fold induction at 1.11111 µM [1] | fold induction at 3.33333 µM [1] | fold induction at 10 µM [1] | further results
4 | 0.074 ± 0.012 | COc1cc2sc(C(=O)CCC(=O)O)cc2cc1CSc1cc2cc(C(=O)CCC(=O)O)sc2cc1OC [Compound D2] | 658 RLU and 1263 RLU and 1053 RLU | 564 RLU and 729 RLU and 601 RLU | 1074 RLU and 921 RLU and 1413 RLU | 6767 RLU and 16752 RLU and 12692 RLU | 51165 RLU and 121226 RLU and 61063 RLU | 102439 RLU and 196826 RLU and 100000 RLU | 111711 RLU and 237713 RLU and 134702 RLU | 126733 RLU and 297637 RLU and 176097 RLU | 139803 RLU and 327985 RLU and 173658 RLU | 138886 RLU and 307582 RLU and 153848 RLU | 0.9 | 0.771 | 1.47 |  |  | 153 | 173 | 191 |  | Kd [2, 3]: 0.046 µM; Kd ([2]; ITC run _01, read-out: Kd): 0.079 µM; Kd ([2]; ITC run _02, read-out: Kd): 0.013 µM
5 | 0.112 ± 0.006 | COc1cc2sc(C(=O)CCC(=O)O)cc2cc1SCSc1cc2cc(C(=O)CCC(=O)O)sc2cc1OC [Compound D5] | 1203 RLU and 820 RLU and 682 RLU | 644 RLU and 783 RLU and 699 RLU | 790 RLU and 1094 RLU and 558 RLU | 2256 RLU and 4162 RLU and 2105 RLU | 27829 RLU and 66900 RLU and 34361 RLU | 93770 RLU and 170286 RLU and 89246 RLU | 121713 RLU and 224782 RLU and 129344 RLU | 143643 RLU and 288417 RLU and 167064 RLU | 169624 RLU and 310357 RLU and 172333 RLU | 161133 RLU and 278063 RLU and 147917 RLU |  | 0.881 |  |  | 128 | 166 | 196 | 232 | 220 | Kd [2, 3]: 0.032 µM; Kd ([2]; ITC run _01, read-out: Kd): 0.033 µM; Kd ([2]; ITC run _02, read-out: Kd): 0.031 µM
